Assay results as given in US9181239B2, “Pyridopyrimidinone inhibitors of kinases” (AbbVie Inc., priority 2011, dated 2015).

Target: T1, Wee1 kinase (Homo sapiens, UniProt P30291)
T1 construct: purchased Carnabio 05-177
Assay: Wee1 time-resolved fluorescence equilibrium binding assay (probe displacement)
Settings: GST-tagged-Wee1 kinase 2 nM, fluorescent probe 300 nM, 1 hour incubation; read-out: Wee-1 binding (Ki nM)
Method: Wee1 kinase was assayed using a time-resolved fluorescence equilibrium binding assay monitoring displacement of a rapidly reversible Oregon Green-labeled ATP-competitive kinase probe (N-(2-(2-(2-(4-(4-(5-chloro-4-(2-(1-hydroxycyclobutyl)thiazol-5-yl)-1H-pyrrolo[2,3-b]pyridin-2-yl)phenyl)piperazin-1-yl)ethoxy)ethoxy)ethyl)-2′,7′-difluoro-3′,6′-dihydroxy-3-oxo-3H-spiro[isobenzofuran-1,9′-xanthene]-5-carboxamide) by competitive Wee1 inhibitors.

T1 sequence (P30291 whole entry): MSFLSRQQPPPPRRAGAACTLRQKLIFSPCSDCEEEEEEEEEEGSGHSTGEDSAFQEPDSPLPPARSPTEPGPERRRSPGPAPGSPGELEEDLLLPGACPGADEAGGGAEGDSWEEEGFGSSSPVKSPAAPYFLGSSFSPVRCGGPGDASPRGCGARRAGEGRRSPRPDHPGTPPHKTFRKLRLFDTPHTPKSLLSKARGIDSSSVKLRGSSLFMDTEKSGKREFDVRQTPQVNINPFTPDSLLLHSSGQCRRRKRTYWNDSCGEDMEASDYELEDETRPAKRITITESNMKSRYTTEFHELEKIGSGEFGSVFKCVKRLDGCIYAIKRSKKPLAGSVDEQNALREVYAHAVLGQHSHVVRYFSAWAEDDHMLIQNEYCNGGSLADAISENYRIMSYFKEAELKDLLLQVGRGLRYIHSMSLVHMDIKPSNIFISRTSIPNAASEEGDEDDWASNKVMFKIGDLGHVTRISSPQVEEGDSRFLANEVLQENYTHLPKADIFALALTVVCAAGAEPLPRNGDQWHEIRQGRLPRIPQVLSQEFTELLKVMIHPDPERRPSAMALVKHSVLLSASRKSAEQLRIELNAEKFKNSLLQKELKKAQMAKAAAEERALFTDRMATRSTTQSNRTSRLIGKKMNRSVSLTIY

## Cn1cc(-c2c(Cl)cccc2Cl)c(=O)c2cnc(Nc3ccc4c(c3)C(=O)NC4=O)nc21 [Example 56, 5-{[6-(2,6-dichlorophenyl)-8-methyl-5-oxo-5,8-dihydropyrido[2,3-d]pyrimidin-2-yl]amino}-1H-isoindole-1,3(2H)-dione]
  Ki: 27 nM

## CN1CCN(C2Cc3ccc(Nc4ncc5c(=O)c(-c6c(Cl)cccc6Cl)cn(C)c5n4)cc3C2)CC1 (stereo not drawn) [Example 57, 6-(2,6-dichlorophenyl)-8-methyl-2-{[2-(4-methylpiperazin-1-yl)-2,3-dihydro-1H-inden-5-yl]amino}pyrido[2,3-d]pyrimidin-5(8H)-one]
  Ki: 0.9 nM

## Cn1cc(-c2c(Cl)cccc2Cl)c(=O)c2cnc(Nc3cc4c(s3)CCNC4)nc21 [Example 58, 6-(2,6-dichlorophenyl)-8-methyl-2-(4,5,6,7-tetrahydrothieno[3,2-c]pyridin-2-ylamino)pyrido[2,3-d]pyrimidin-5(8H)-one]
  Ki: 0.4 nM

## CN1CCN(c2ncc(Nc3ncc4c(=O)c(-c5c(Cl)cccc5Cl)cn(C)c4n3)cn2)CC1 [Example 59, 6-(2,6-dichlorophenyl)-8-methyl-2-{[2-(4-methylpiperazin-1-yl)pyrimidin-5-yl]amino}pyrido[2,3-d]pyrimidin-5(8H)-one]
  Ki: 18 nM

## CN1Cc2cc(Nc3ncc4c(=O)c(-c5c(Cl)cccc5Cl)cn(C)c4n3)ccc2C1(C)C [Example 60, 6-(2,6-dichlorophenyl)-8-methyl-2-[(1,1,2-trimethyl-2,3-dihydro-1H-isoindol-5-yl)amino]pyrido[2,3-d]pyrimidin-5(8H)-one]
  Ki: 0.2 nM

## CN1CCC(Nc2ccc(Nc3ncc4c(=O)c(-c5c(Cl)cccc5Cl)cn(C)c4n3)cc2)CC1 [Example 61, 6-(2,6-dichlorophenyl)-8-methyl-2-({4-[(1-methylpiperidin-4-yl)amino]phenyl}amino)pyrido[2,3-d]pyrimidin-5(8H)-one]
  Ki: 0.6 nM

## CN(C)C1CCN(c2ncc(Nc3ncc4c(=O)c(-c5c(Cl)cccc5Cl)cn(C)c4n3)cn2)CC1 [Example 62, 6-(2,6-dichlorophenyl)-2-({2-[4-(dimethylamino)piperidin-1-yl]pyrimidin-5-yl}amino)-8-methylpyrido[2,3-d]pyrimidin-5(8H)-one]
  Ki: 3 nM

## Cn1cc(-c2c(Cl)cccc2Cl)c(=O)c2cnc(Nc3ccc(N[C@@H]4CCNC4)cc3)nc21 [Example 63, 6-(2,6-dichlorophenyl)-8-methyl-2-({4-[(3R)-pyrrolidin-3-ylamino]phenyl}amino)pyrido[2,3-d]pyrimidin-5(8H)-one]
  Ki: 0.7 nM

## Cn1cc(-c2c(Cl)cccc2Cl)c(=O)c2cnc(Nc3ccc(N[C@H]4CCNC4)cc3)nc21 [Example 64, 6-(2,6-dichlorophenyl)-8-methyl-2-({4-[(3S)-pyrrolidin-3-ylamino]phenyl}amino)pyrido[2,3-d]pyrimidin-5(8H)-one]
  Ki: 0.4 nM

## Cn1cc(-c2c(Cl)cccc2Cl)c(=O)c2cnc(Nc3ccc4c(c3)CNC4(C)C)nc21 [Example 65, 6-(2,6-dichlorophenyl)-2-[(1,1-dimethyl-2,3-dihydro-1H-isoindol-5-yl)amino]-8-methylpyrido[2,3-d]pyrimidin-5(8H)-one]
  Ki: 0.3 nM

## Cn1cc(-c2c(Cl)cccc2Cl)c(=O)c2cnc(Nc3ccc(NC4CCNCC4)cc3)nc21 [Example 66, 6-(2,6-dichlorophenyl)-8-methyl-2-{[4-(piperidin-4-ylamino)phenyl]amino}pyrido[2,3-d]pyrimidin-5(8H)-one]
  Ki: 0.4 nM

## CN1CCC(Nc2ccc(Nc3ncc4c(=O)c(-c5c(Cl)cccc5Cl)cn(C)c4n3)cc2)C1 (stereo not drawn) [Example 67, 6-(2,6-dichlorophenyl)-8-methyl-2-({4-[(1-methylpyrrolidin-3-yl)amino]phenyl}amino)pyrido[2,3-d]pyrimidin-5(8H)-one]
  Ki: 0.5 nM

## CN1CCC(Oc2ccc(Nc3ncc4c(=O)c(-c5c(Cl)cccc5Cl)cn(C)c4n3)cc2)CC1 [Example 68, 6-(2,6-dichlorophenyl)-8-methyl-2-({4-[(1-methylpiperidin-4-yl)oxy]phenyl}amino)pyrido[2,3-d]pyrimidin-5(8H)-one]
  Ki: 0.4 nM

## CN1CCC(Nc2ccc(Nc3ncc4c(=O)c(-c5c(F)cccc5Cl)cn(C)c4n3)cc2)CC1 [Example 69, 6-(2-chloro-6-fluorophenyl)-8-methyl-2-({4-[(1-methylpiperidin-4-yl)amino]phenyl}amino)pyrido[2,3-d]pyrimidin-5(8H)-one]
  Ki: 3 nM

## CN1Cc2cc(Nc3ncc4c(=O)c(-c5c(F)cccc5Cl)cn(C)c4n3)ccc2C1(C)C [Example 70, 6-(2-chloro-6-fluorophenyl)-8-methyl-2-[(1,1,2-trimethyl-2,3-dihydro-1H-isoindol-5-yl)amino]pyrido[2,3-d]pyrimidin-5(8H)-one]
  Ki: 0.2 nM

## COC(=O)c1cc(Nc2ncc3c(=O)c(-c4c(Cl)cccc4Cl)cn(C)c3n2)ccc1N1CCN(C)CC1 [Example 71, methyl 5-{[6-(2,6-dichlorophenyl)-8-methyl-5-oxo-5,8-dihydropyrido[2,3-d]pyrimidin-2-yl]amino}-2-(4-methylpiperazin-1-yl)benzoate]
  Ki: 0.7 nM

## CN(C)C1CCN(C2Cc3ccc(Nc4ncc5c(=O)c(-c6c(Cl)cccc6Cl)cn(C)c5n4)cc3C2)CC1 (stereo not drawn) [Example 72, 6-(2,6-dichlorophenyl)-2-({2-[4-(dimethylamino)piperidin-1-yl]-2,3-dihydro-1H-inden-5-yl}amino)-8-methylpyrido[2,3-d]pyrimidin-5(8H)-one]
  Ki: 0.5 nM

## Cn1cc(-c2c(F)cccc2Cl)c(=O)c2cnc(Nc3ccc(NC4CCNCC4)cc3)nc21 [Example 73, 6-(2-chloro-6-fluorophenyl)-8-methyl-2-{[4-(piperidin-4-ylamino)phenyl]amino}pyrido[2,3-d]pyrimidin-5(8H)-one]
  Ki: 2.8 nM

## Cn1cc(-c2c(F)cccc2Cl)c(=O)c2cnc(Nc3ccc4c(c3)CNCC4)nc21 [Example 74, 6-(2-chloro-6-fluorophenyl)-8-methyl-2-(1,2,3,4-tetrahydroisoquinolin-7-ylamino)pyrido[2,3-d]pyrimidin-5(8H)-one]
  Ki: 1.2 nM

## Cn1cc(-c2c(F)cccc2Cl)c(=O)c2cnc(Nc3ccc4c(c3)CCNC4)nc21 [Example 75, 6-(2-chloro-6-fluorophenyl)-8-methyl-2-(1,2,3,4-tetrahydroisoquinolin-6-ylamino)pyrido[2,3-d]pyrimidin-5(8H)-one]
  Ki: 1.3 nM

## Cn1cc(-c2c(Cl)cccc2Cl)c(=O)c2cnc(Nc3ccc(N[C@H]4CC[C@H](N(C)C)CC4)cc3)nc21 [Example 76, 6-(2,6-dichlorophenyl)-2-[(4-{[trans-4-(dimethylamino)cyclohexyl]amino}phenyl)amino]-8-methylpyrido[2,3-d]pyrimidin-5(8H)-one]
  Ki: 0.7 nM

## Cn1cc(-c2c(Cl)cccc2Cl)c(=O)c2cnc(Nc3ccc(N[C@H]4CC[C@@H](N(C)C)CC4)cc3)nc21 [Example 77, 6-(2,6-dichlorophenyl)-2-[(4-{[cis-4-(dimethylamino)cyclohexyl]amino}phenyl)amino]-8-methylpyrido[2,3-d]pyrimidin-5(8H)-one]
  Ki: 0.5 nM

## CN(C)CCCN1CCN(c2ccc(Nc3ncc4c(=O)c(-c5c(Cl)cccc5Cl)cn(C)c4n3)cc2)CC1 [Example 78, 6-(2,6-dichlorophenyl)-2-[(4-{4-[3-(dimethylamino)propyl]piperazin-1-yl}phenyl)amino]-8-methylpyrido[2,3-d]pyrimidin-5(8H)-one]
  Ki: 1.2 nM

## CN(C)CCN1CCN(c2ccc(Nc3ncc4c(=O)c(-c5c(Cl)cccc5Cl)cn(C)c4n3)cc2)CC1 [Example 79, 6-(2,6-dichlorophenyl)-2-[(4-{4-[2-(dimethylamino)ethyl]piperazin-1-yl}phenyl)amino]-8-methylpyrido[2,3-d]pyrimidin-5(8H)-one]
  Ki: 0.8 nM
